System: Human immunodeficiency virus
Assay: In vitro inhibitory activity against HIV was determined
Format: functional, organism-based
Conditions: Human immunodeficiency virus 1

With `Cc1cn([C@H]2C[C@H](O)[C@](CO)(N=[N+]=[N-])O2)c(=O)[nH]c1=O` the IC50 was 10 nM.
